From patent US8349835B2, “Aromatic ring fused triazine derivatives and uses thereof” (Shenyang Pharmaceutical University, priority 2008, dated 2013) come the findings set out here.

For assay [1], the system named is chorioallantoic membrane vessels. Description: Activity test by chick chorioallantoic membrane method. The assay is classed as in vivo. The conditions noted are these: 5 uL medicine on cellulose membrane, chick embryo, 2 days. On the procedure:
After the shell membrane became wet, tore it open with ophthalmological tweezers so to expose the chorioallantoic membrane. • 6) Added 5 uL of selected medicine to a 0.5×0.5 cm cellulose membrane sterilized by high pressure, then set the membrane on the part of the chorioallantoic membrane with fewer vessels • 7) Closed the window, and put the embryos back into the hatch box to hatch for 2 days. • 8) Opened the transparent tape, and then opened the mixed cellulose membrane lightly with a tweezers. Measured the avascular area and took photographs.

Another assay deals with VEGFR-2 (Homo sapiens, UniProt P35968). Description: VEGFR-2 inhibition rate test (kinase assay kit, colorimetric ELISA). The conditions noted are these: concentration not given.
Sequence of VEGFR-2 (P35968 20-1356): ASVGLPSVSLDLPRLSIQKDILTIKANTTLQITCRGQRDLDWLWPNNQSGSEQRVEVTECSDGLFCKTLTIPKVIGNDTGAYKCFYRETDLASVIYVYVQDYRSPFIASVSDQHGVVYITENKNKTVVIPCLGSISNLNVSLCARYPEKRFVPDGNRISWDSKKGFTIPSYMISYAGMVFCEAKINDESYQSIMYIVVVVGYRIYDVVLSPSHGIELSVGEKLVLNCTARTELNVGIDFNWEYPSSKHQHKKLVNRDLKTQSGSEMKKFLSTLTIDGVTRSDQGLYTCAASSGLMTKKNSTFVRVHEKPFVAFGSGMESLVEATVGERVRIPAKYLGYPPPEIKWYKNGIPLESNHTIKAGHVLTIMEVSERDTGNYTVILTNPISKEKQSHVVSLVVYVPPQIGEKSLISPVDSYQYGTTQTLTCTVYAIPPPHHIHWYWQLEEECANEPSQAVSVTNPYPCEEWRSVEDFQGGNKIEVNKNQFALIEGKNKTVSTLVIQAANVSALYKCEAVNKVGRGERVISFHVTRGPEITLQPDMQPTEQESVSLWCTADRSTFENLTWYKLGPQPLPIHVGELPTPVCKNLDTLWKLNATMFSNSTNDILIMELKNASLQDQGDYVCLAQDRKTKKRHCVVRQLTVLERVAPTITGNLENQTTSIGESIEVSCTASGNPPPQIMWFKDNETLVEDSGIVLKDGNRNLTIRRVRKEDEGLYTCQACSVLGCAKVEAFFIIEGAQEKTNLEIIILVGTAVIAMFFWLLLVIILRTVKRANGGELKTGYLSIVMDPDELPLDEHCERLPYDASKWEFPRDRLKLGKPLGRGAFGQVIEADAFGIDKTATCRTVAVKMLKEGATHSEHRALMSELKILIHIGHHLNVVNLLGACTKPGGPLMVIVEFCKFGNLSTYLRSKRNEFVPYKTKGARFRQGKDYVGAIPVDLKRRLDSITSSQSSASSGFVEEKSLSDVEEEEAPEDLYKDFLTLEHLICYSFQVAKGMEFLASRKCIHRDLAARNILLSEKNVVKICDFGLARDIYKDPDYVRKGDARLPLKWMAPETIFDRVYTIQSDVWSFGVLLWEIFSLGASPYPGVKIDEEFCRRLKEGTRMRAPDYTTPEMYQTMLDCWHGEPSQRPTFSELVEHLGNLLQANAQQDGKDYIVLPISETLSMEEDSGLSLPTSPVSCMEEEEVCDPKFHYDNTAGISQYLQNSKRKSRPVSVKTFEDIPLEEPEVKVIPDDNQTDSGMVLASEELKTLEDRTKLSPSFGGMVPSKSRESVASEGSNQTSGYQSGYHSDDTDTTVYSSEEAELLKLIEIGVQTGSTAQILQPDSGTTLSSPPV
A further assay deals with Rat aortic ring. Description: Rat Aortic Ring Assay. The assay is classed as cell-based. As to conditions: for Rat Aortic Ring Assay (10 ug/ml), result in words: observed on the sixth day; for inhibition at 10 µg/mL: Rattus norvegicus, 10 ug/ml, compared with blank control, sixth day. An excerpt: Rat Aortic Ring Assay • 1) 6 week old SD […] (Sprague Dawley) were selected for the experiments. Cleaned abdominal skin with 75% ethanol to disinfect, and then anesthetized the mice with ether, • 2) Carefully removed the abdominal aortas and transferred the aortas to normal saline. Excessive vascular tissues were carefully removed with scissors. • 3) The aortas were rinsed with normal saline until no blood stain remained. • 4) Sectioned the aortas into one millimeter depth arterial slices with ophthalmological scissors. • 5) Add 50 μL pre-thawed Matrigel to each well of the pre-cooled 96 well cell culture plates, and embedded the ring-shaped mouse aortas in collagen gel. • 6) Incubated for 60 minutes at 37° C. to solidificate the gel. • 7) Added DMEM culture solution containing 10% FBS, along with different concentrations of the selected compounds into the wells and cultured in the incubator. Every compound was repeated in no less than 3 wells. • 8) Replaced with the fresh medium and changed the medicine once on the third day. • 9) Took out the pates on the sixth day, and observed the vascular growth with Microscope (OLYMPUS, DP70, Japan) and took photographs(×100). Randomly chose 3 arterial rings to photograph and calculated the area covered by micro-vascular with Image Pro Plus software. The inhibition rate is calculated as:
[formula] • Evaluation criteria: ⋆inhibition rate[…]; ⋆⋆inhibition rate 60-90%; ⋆⋆⋆inhibition rate>90%.

The test system of assay [2] is Microvascular Endothelial Cells (MVEC). Description: MTT growth inhibition of MVEC. The assay is classed as cell-based. The conditions noted are these: Endothelial cell, 96 h, 4 days culture with drug, read-out: IG50 on inhibiting growth of MVEC. How it is done: In Vitro Anti-Tumor Activity Test
Put cell suspension into centrifugal tubes with a pipette under sterile conditions, then the cell suspension was centrifuged for 3 minutes at 1300 rpm. Discarded the supernatant lightly and added fresh culture medium. Mixed the cells by pipetting, then transferred the cells into culture flasks, and put them into the CO2 incubator. Changed the culture medium once after 24 hours.
Human prostate cancer cells (DU145, PC-3) were cultured in a medium containing RPMI1640 basic medium supplemented with 10% heat-inactivated FBS, 100 IU/mL penicillin, 100 μg/mL streptomycin and 1 mmol/L L-glutamine. Human breast carcinoma cells (T47D, MDA-MB231) were cultured in a medium containing RPM11640 basic medium supplemented with 10% heat-inactivated FBS, 5 μg/mL insulin, 100 IU/mL penicillin, 100 μg/mL streptomycin and 1 mmol/L L-glutamine. Human breast carcinoma cells (MCF-7) were cultured in a medium containing DMEM basic medium supplemented with 10% heat-inactivated FBS, 5 μg/mL insulin, 100 IU/mL penicillin, 100 μg/mL streptomycin and […]. Murine Lewis lung cancer cells (LL/2), murine melanoma cells (B16FD) and Microvascular Endothelial Cells (MVEC) were cultured in a medium containing DMEM basic medium supplemented with 10% heat-inactivated FBS, 4.5 g/L glucose, 1.5 g/L NaHCO3, 100 IU/mL penicillin, 100 μg/mL streptomycin and 4 mmol/L L-glutamine. All these cell lines were incubated at 37° C. biochemical incubator with 5% CO2 saturated humidity.
After resuscitation, the cells were passed for 2-3 generations till they became stable, then they were used for the experiments. Each passage was based on the standard that all cells were spread over the bottoms of culture flasks.
Cells were digested off from the bottoms of culture flasks with trypsin (0.25%). The cell dissociation buffer was transferred into centrifuge tubes, added medium to stop the digestion, and centrifuged for 3 minutes at 1300 rpm. Discarded the supernatant lightly and added fresh culture medium (5 mL). Mixed the cells by pipetting, then added 10 μL of the cell suspension into the cell counting plate, and adjusted the cell concentration to 2×10^4 cells/mL. Added 100 μL of the cell suspension to all wells on the 96 well plates, except A1 well as the blank control. Put the plates into the biochemical incubator for 24 hours and to make sure the cells grew along the walls.
The drugs were dissolved in 80 mmol/L DMSO first, and then diluted the drugs with ethanol to 8 mmol/L. The solution was further diluted with the culture medium to different concentrations as 160 μmol/L, 120 μmol/L, 80 μmol/L, 40 μmol/L, 20 μmol/L and 10 μmol/L. Added 100 μL of the drug solution to each well on the 96 well plates. Therefore, the final concentrations of the drugs that were added to the cells were 80 μmol/L, 40 μmol/L, 20 μmol/L, 10 μmol/L and 5 μmol/L, and each concentration were repeated in three parallel wells. Put the culture plates into the biochemical incubator to culture continuously for 4 days.
Added 50 μL MTT liquids (2 mg/mL) into each well, put the culture plates into the biochemical incubator for 4 h, discarded MTT liquids (TCC), added 200 μL DMSO, then oscillated for 10 minutes on the magnetic oscillator to make sure that the survived cells and the reaction product of MTT were fully dissolved. Detected and recorded the absorbance (OD) values of each well at the wavelength of 570 nm using the microplate reader. The OD values of cells without tested drugs were used as control. The cell growth inhibition rates under each drug concentration were calculated by the following formula. […] Inhibition rate of growth(%)=(1−The absorbance(OD)of cells with tested drugs/The absorbance(OD)of the blank control group)×100%
The absorbance (OD) of cells with tested drugs: OD value is measured with the test drugs.
The absorbance (OD) of the blank control group: OD value is measured without the test drugs. […]

Broadly, the inhibition is the relative decrease from the control value, in per cent. Low readings indicate a weak effect, high ones a strong effect.

Experimental for VEGFR-2: VEGFR-2 Inhibition Rate Test
Experiments were carried out according to the Kit instruction as the follows
1) Added 10 μL 10 mM ATP to 1.25 ml 6 μM substrate peptide, and diluted the mixture to 2.5 mL with pure water to prepare the reaction solution of 2×ATP/Substrate (ATP=40 μM, Substrate=3 μm).
2) Quickly moved VGFR-2 Kinase from −80° C. to the ice to be thawed.
3) Centrifuged at 4° C. shortly, then the liquid was centrifuged to the bottoms of the containers and moved back on the ice.
5) Added 0.6 mL DTT/Kinase buffer solution to a tube containing the kinase to prepare 4× Reaction solution (Kinase=8 ng/μL).
6) Diluted 12.5 μL of selected compound by the same volume, then mixed with 12.5 μL 4× Reaction solution of Kinase, and incubated for 5 minutes at room temperature.
7) Added 25 μL 2× Reaction solution of ATP/Substrate into the above solution.
8) Incubated for 30 minutes at room temperature.
10) Added 25 μL reaction solution and 75 μL pure water to Streptavidin coated plates and incubated for 60 minutes at room temperature.
11) Diluted Phospho-Tyrosin mAb with PBS/T containing 1% BSA to one thousandth, and added 100 uL of the diluted Ab to each well.
12) Incubated for 60 minutes at room temperature.
13) Washed the plate three times with 200 μL PBS/T for each well.
Detection of Colorimetric ELISA
14) Secondary antibody was diluted with PBS/T containing 1% BSA marked by HRP (IgG of anti-rat diluted to 1/500, and IgG of anti-rabbit diluted to 1/1000).
15) Added 100 μL diluted secondary antibody to each well.
16) Incubated for 30 minutes at room temperature.
17) Washed the plate five times with 200 μL PBS/T for each well.
18) Added 100 μL TMB substrate to each well.
20) Added 100 μL Sulfuric acid solution (2N) to each well to stop the reaction, and mixed evenly.
21) Detected the absorbance at 450 nm with Microplate Reader and calculated enzyme inhibition rate.

In the case of `Clc1cccc(Nc2nnnc3ccccc23)c1` [Example 4, 4-(3-chloroanilino)-benzo[d][1,2,3]triazine], the “The inhibitory effect on the growth of chorioallantoic membrane vessels” value (from here on “The inhibitory effect on the growth”) in assay [1] was “The vascular growth is abundant”. Also, the “Kinase inhibition rate (VEGFR-2)” value at VEGFR-2 came out at 12.83.
On to `CCCCOc1cc2nnnc(Nc3cc(Cl)cc(Cl)c3)c2cc1OC` [Example 13, 6-methoxy-7-n-butoxy-4-(3,5-dichloroanilino)-benzo[d][1,2,3]triazine], for which, in the assay on Rat aortic ring, the “Rat Aortic Ring Assay (10 ug/ml), result in words” value (from here on “Rat Aortic Ring Assay (10 ug/ml)”) is given as “No significant inhibition”. Also, the IC50 in assay [2] worked out at 3.17 µM. Also, on VEGFR-2, the “Kinase inhibition rate (VEGFR-2)” value was −9.89.
`CCCCOc1cc2nnnc(Nc3ccc(Cl)c(Cl)c3)c2cc1OC` [Example 15, 6-methoxy-7-n-butoxy-4-(3,4-dichloroanilino)-benzo[d][1,2,3]triazine] had an inhibition at 10 µg/mL in the assay on Rat aortic ring of around 30%. Moreover, in assay [2], the IC50 amounted to 15.5 µM.
With `CCCCOc1cc2nnnc(Nc3ccc(OC(F)(F)F)cc3)c2cc1OC` [Example 20, 6-methoxy-7-n-butoxy-4-(4-trifluoromethoxyanilino)-benzo[d][1,2,3]triazine], the “Rat Aortic Ring Assay (10 ug/ml)” value in the assay on Rat aortic ring is “Cell proliferation and migration were not significantly affected,”. In addition, the “The inhibitory effect on the growth” value in assay [1] was “One of the two samples exhibits significant inhibition, and the other”.
In the assay with Rat aortic ring, `CCOc1cc2nnnc(Nc3cccc(C(F)(F)F)c3)c2cc1OC` [Example 34, 6-methoxy-7-ethoxy-4-(3-trifluoromethylanilino)-benzo[d][1,2,3]triazine] displayed an inhibition at 10 µg/mL above 80%. Besides, in assay [1], the “The inhibitory effect on the growth” value was “One of the two samples exhibits significant inhibition zone, and the other”.
As for `CCOc1cc2nnnc(Nc3cccc(Cl)c3)c2cc1OC` [Example 38, 6-methoxy-7-ethoxy-4-(3-chloroanilino)-benzo[d][1,2,3]triazine], the “Rat Aortic Ring Assay (10 ug/ml)” value in the assay with Rat aortic ring was “No significant inhibition”. Also, the “The inhibitory effect on the growth” value in assay [1] is reported as “One embryo is dead”.
For `CCOc1cc2nnnc(Nc3ccccc3F)c2cc1OC` [Example 41, 6-methoxy-7-ethoxy-4-(2-fluoroanilino)-benzo[d][1,2,3]triazine], the “Rat Aortic Ring Assay (10 ug/ml)” value in the assay on Rat aortic ring is recorded as “No significant inhibition”. In assay [1], the “The inhibitory effect on the growth” value was “One embryo is dead, and the other exhibits no significant inhibition”.
As for `COc1cc2c(Nc3ccc(OC(F)(F)F)cc3)nnnc2cc1OCCCCl` [Example 70, 6-methoxy-7-chloropropoxy-4-(4-trifluoromethoxyanilino)-benzo[d][1,2,3]triazine], the inhibition at 10 µg/mL in the assay with Rat aortic ring is above 50%. Moreover, in assay [2], the IC50 stood at 23.2 µM. Further, on VEGFR-2, the “Kinase inhibition rate (VEGFR-2)” value is 16.65.
As for `COc1cc2c(Nc3ccc(C)cc3)nnnc2cc1OCCCCl` [Example 77, 6-methoxy-7-chloropropoxy-4-(4-methylanilino)-benzo[d][1,2,3]triazine], in the assay on Rat aortic ring, the “Rat Aortic Ring Assay (10 ug/ml)” value was “Micro-vascular growth was significantly inhibited, affecting cell”. Moreover, the IC50 in assay [2] was 17.1 µM.
In the case of `Clc1ccc2nnnc(Nc3ccccc3)c2n1` [Example 78, 6-chloro-4-anilino-pyrido[3,2-d][1,2,3]triazine], the “Rat Aortic Ring Assay (10 ug/ml)” value with Rat aortic ring is “No significant inhibition in the previous 3 days, but vascular ring”. Further, the IC50 in assay [2] was 10.7 µM. The “Kinase inhibition rate (VEGFR-2)” value at VEGFR-2 was found to be 15.87.
Consider `Fc1cc(Nc2nnnc3ccc(Cl)nc23)ccc1Br` [Example 79, 6-chloro-4-(3-fluoro-4-bromoanilino)-pyrido[3,2-d][1,2,3]-triazine], for which the “Rat Aortic Ring Assay (10 ug/ml)” value in the assay with Rat aortic ring is on record as “Almost complete inhibition (10 μg/mL), vascular ring was dead”. The IC50 in assay [2] stood at 9.56 µM.
For the molecule `Clc1cc(Cl)cc(Nc2nnnc3ccc(Cl)nc23)c1` [Example 80, 6-chloro-4-(3,5-dichloroanilino)pyrido[3,2-d][1,2,3]triazine], in the assay with Rat aortic ring, the “Rat Aortic Ring Assay (10 ug/ml)” value is given as “Almost complete inhibition (10 μg/mL), vascular ring was dead”. The IC50 in assay [2] was found to be 7.93 µM.
Consider `Fc1cc(F)cc(Nc2nnnc3ccc(Cl)nc23)c1` [Example 81, 6-chloro-4-(3,5-difluoroanilino)pyrido[3,2-d][1,2,3]triazine], for which the “Rat Aortic Ring Assay (10 ug/ml)” value in the assay with Rat aortic ring is on record as “Almost complete inhibition (10 μg/mL), vascular ring was dead”. Also, in assay [2], the IC50 came to 10.3 µM. In addition, the “Kinase inhibition rate (VEGFR-2)” value on VEGFR-2 is −6.44.
Regarding `Clc1ccc2nnnc(Nc3ccc(Cl)c(Cl)c3)c2n1` [Example 82, 6-chloro-4-(3,4-dichloroanilino)pyrido[3,2-d][1,2,3]triazine], in the assay on Rat aortic ring, the inhibition at 10 µg/mL was above 80%. Also, the IC50 in assay [2] is 9.19 µM.
Take `Clc1ccc(Nc2nnnc3ncc(Cl)cc23)cc1` [Example 83, 6-chloro-4-(4-chloroanilino)pyrido[3,2][1,2,3]triazine]: the “Rat Aortic Ring Assay (10 ug/ml)” value in the assay on Rat aortic ring is “No significant inhibition”. In addition, the IC50 in assay [2] was 10.5 µM. Also, the “Kinase inhibition rate (VEGFR-2)” value on VEGFR-2 is on record as 23.56.
Consider `FC(F)(F)c1ccc(Nc2nnnc3ccc(Cl)nc23)cc1` [Example 85, 6-chloro-4-(4-trifluoromethylanilino)pyrido[3,2-d][1,2,3]triazine], for which the “Rat Aortic Ring Assay (10 ug/ml)” value in the assay with Rat aortic ring is “No significant inhibition”. Moreover, the IC50 in assay [2] stood at 8.06 µM.
Consider `FC(F)(F)Oc1ccc(Nc2nnnc3ccc(Cl)nc23)cc1` [Example 87, 6-chloro-4-(4-trifluoromethoxyanilino)pyrido[3,2-d][1,2,3]triazine], for which the “Rat Aortic Ring Assay (10 ug/ml)” value in the assay with Rat aortic ring is given as “Almost complete inhibition (10 μg/mL), vascular ring was dead”. Besides, in assay [2], the IC50 was 11.5 µM.
In the case of `Clc1cccc(Nc2nnnc3ccc(Cl)nc23)c1` [Example 88, 6-chloro-4-(3-chloroanilino)pyrido[3,2-d][1,2,3]triazine], the “Rat Aortic Ring Assay (10 ug/ml)” value with Rat aortic ring is recorded as “Almost complete inhibition (10 μg/mL), vascular ring was dead”. Further, the IC50 in assay [2] stood at 12.7 µM. In addition, the “Kinase inhibition rate (VEGFR-2)” value on VEGFR-2 is 2.39.
On to `Fc1ccccc1Nc1nnnc2ccc(Cl)nc12` [Example 91, 6-chloro-4-(2-fluoroanilino)pyrido[3,2-d][1,2,3]triazine], for which, in the assay on Rat aortic ring, the “Rat Aortic Ring Assay (10 ug/ml)” value is listed as “No significant inhibition”. The IC50 in assay [2] is 10.8 µM.
